# Laboratory results reported in patent US20110190280A1, “Thiazole And Oxazole Kinase Inhibitors” (priority 2007, published 2011).
# Columns and labels:
# [1] = test system: Colo205 tumor cells; assay: Cell growth inhibition assay (CellTiter-Glo), Colo205; settings: Homo sapiens, COLO 205, 72 h, read-out: Activity in Colo205 Tumor Cells;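 note: growth measured via total ATP luminescence (CellTiter-Glo) as a proxy for cell number, inhibition expressed against DMSO-treated control wells, 3-day exposure at 0.2% final DMSO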
# [2] = target: B-Raf (Homo sapiens, UniProt P15056); assay: B-Raf Accelerated MEK ATPase assay (BRAMA); assay type: biochemical; settings: BRAMA enzyme assay; class by pIC50; read-out: B-Raf Activity
# Description: Compounds of the present invention were tested for B-Raf […] inhibitory activity in a B-Raf Accelerated MEK ATPase assay (BRAMA). The BRAMA assay is a high sensitivity assay which measures an intrinsic MEK-mediated ATP hydrolysis uncoupled from downstream ERK phosphorylation by coupling the formation of ADP to NADH oxidation through the enzymes pyruvate kinase and lactate dehydrogenase. When ADP production is initiated by addition of catalytic amounts of an activated RAF enzyme and non-phosphorylated MEK, one observes robust ADP production concomitant with RAF-mediated phosphorylation of MEK. Specific details of the assay are disclosed in: C. Rominger, M. Schaber, E. May. Assay for B-Raf Activity Based on Intrinsic MEK ATPase Activity.
# [3] = test system: SK-MEL-28 tumor cells; assay: Cell growth inhibition assay (CellTiter-Glo), SK-MEL-28; settings: Homo sapiens, SK-MEL-28, 72 h, read-out: Activity in SK-MEL-28 Tumor Cells;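 note: luminescent total ATP as a proxy for cell number, threefold serial dilutions at 0.2% DMSO, percent growth inhibition versus DMSO vehicle control wells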
# Chain of B-Raf (P15056 whole entry): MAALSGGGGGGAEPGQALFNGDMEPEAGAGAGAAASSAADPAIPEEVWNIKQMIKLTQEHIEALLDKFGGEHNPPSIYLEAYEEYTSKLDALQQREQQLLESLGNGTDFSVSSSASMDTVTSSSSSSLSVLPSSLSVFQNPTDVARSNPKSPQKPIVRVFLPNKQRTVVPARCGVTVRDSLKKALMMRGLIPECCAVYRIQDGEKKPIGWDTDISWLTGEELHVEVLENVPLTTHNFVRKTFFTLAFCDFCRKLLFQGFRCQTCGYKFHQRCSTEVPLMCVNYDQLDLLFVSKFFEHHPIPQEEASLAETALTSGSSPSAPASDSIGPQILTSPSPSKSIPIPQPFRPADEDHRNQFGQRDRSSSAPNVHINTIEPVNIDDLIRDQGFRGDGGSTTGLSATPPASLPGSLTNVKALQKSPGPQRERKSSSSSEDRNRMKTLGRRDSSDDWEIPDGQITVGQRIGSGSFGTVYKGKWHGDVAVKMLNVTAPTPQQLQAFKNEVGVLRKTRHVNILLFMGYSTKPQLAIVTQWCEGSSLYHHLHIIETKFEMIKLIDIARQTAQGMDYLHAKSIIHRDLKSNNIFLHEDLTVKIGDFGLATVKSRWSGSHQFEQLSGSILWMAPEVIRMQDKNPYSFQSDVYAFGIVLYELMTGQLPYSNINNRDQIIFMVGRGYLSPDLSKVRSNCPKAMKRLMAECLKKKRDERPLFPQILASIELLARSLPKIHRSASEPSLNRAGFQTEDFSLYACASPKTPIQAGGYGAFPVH
IC50 [1],IC50 [2],IC50 [3],Structure (SMILES)
< 500 nM,< 100 nM,500 to 5000 nM,"COc1cc(OC)cc(-c2nc(N(C)C)sc2-c2ccnc(Nc3ccc(OC4CCN(CCS(C)(=O)=O)CC4)c(F)c3)n2)c1 [Example 24, 4-[4-[3,5-bis(methyloxy)phenyl]-2-(dimethylamino)-1,3-thiazol-5-yl]-N-[3-fluoro-4-({1-[2-(methylsulfonyl)ethyl]-4-piperidinyl}oxy)phenyl]-2-pyrimidinamine]"
< 500 nM,< 100 nM,< 500 nM,"CCNc1nc(-c2cc(C)cc(OC)c2)c(-c2ccnc(Nc3ccc(N4CCOCC4)c(C(=O)O)c3)n2)s1 [Example 26, 5-[(4-{2-(Ethylamino)-4-[3-methyl-5-(methyloxy)phenyl]-1,3-thiazol-5-yl}-2-pyrimidinyl)amino]-2-(4-morpholinyl)benzoic acid]"
,< 100 nM,,"CCNc1nc(-c2cc(C)cc(OCC)c2)c(-c2ccnc(Nc3ccc(N4CCN(C)CC4)c(F)c3)n2)s1 [Example 39, 4-{2-(Ethylamino)-4-[3-(ethyloxy)-5-methylphenyl]-1,3-thiazol-5-yl}-N-[3-fluoro-4-(4-methyl-1-piperazinyl)phenyl]-2-pyrimidinamine]"
< 500 nM,< 100 nM,500 to 5000 nM,"CCNc1nc(-c2cccc(OC)c2)c(-c2ccnc(Nc3ccc(CCN4CCN(S(C)(=O)=O)CC4)nc3)n2)s1 [Example 40, 4-{2-(Ethylamino)-4-[3-(methyloxy)phenyl]-1,3-thiazol-5-yl}-N-(6-{2-[4-(methylsulfonyl)-1-piperazinyl]ethyl}-3-pyridinyl)-2-pyrimidinamine]"
< 500 nM,< 100 nM,< 500 nM,"CCNc1nc(-c2cccc(OC)c2F)c(-c2ccnc(Nc3ccc(OC4CCN(CCS(C)(=O)=O)CC4)c(F)c3)n2)s1 [Example 48, 4-{2-(Ethylamino)-4-[2-fluoro-3-(methyloxy)phenyl]-1,3-thiazol-5-yl}-N-[3-fluoro-4-({1-[2-(methylsulfonyl)ethyl]-4-piperidinyl}oxy)phenyl]-2-pyrimidinamine]"
< 500 nM,< 100 nM,500 to 5000 nM,"CCNc1nc(-c2ccc(C)c(OC)c2)c(-c2ccnc(Nc3ccc(OCCN4CCCC4)c(C#N)c3)n2)s1 [Example 50, 5-[(4-{2-(Ethylamino)-4-[4-methyl-3-(methyloxy)phenyl]-1,3-thiazol-5-yl}-2-pyrimidinyl)amino]-2-{[2-(1-pyrrolidinyl)ethyl]oxy}benzonitrile]"
< 500 nM,< 100 nM,< 500 nM,"CCNc1nc(-c2ccnc(OC)c2)c(-c2ccnc(Nc3ccc(OCCN4CCCC4)c(Cl)c3)n2)s1 [Example 58, N-(3-Chloro-4-{[2-(1-pyrrolidinyl)ethyl]oxy}phenyl)-4-{2-(ethylamino)-4-[2-(methyloxy)-4-pyridinyl]-1,3-thiazol-5-yl}-2-pyrimidinamine]"
500 to 5000 nM,< 100 nM,500 to 5000 nM,"CCc1nc(-c2ccc3cc[nH]c3c2)c(-c2ccnc(Nc3ccc(OC4CCN(CCS(C)(=O)=O)CC4)c(F)c3)n2)s1 [Example 68, 4-[2-Ethyl-4-(1H-indol-6-yl)-1,3-thiazol-5-yl]-N-[3-fluoro-4-({1-[2-(methylsulfonyl)ethyl]-4-piperidinyl}oxy)phenyl]-2-pyrimidinamine]"
< 500 nM,< 100 nM,500 to 5000 nM,"CCNc1nc(-c2cc(OC)cc(OC)c2)c(-c2ccnc(Nc3ccc(N4CCN(C)CC4)c(Cl)c3)n2)o1 [Example 69, 4-[4-[3,5-Bis(methyloxy)phenyl]-2-(ethylamino)-1,3-oxazol-5-yl]-N-[3-chloro-4-(4-methyl-1-piperazinyl)phenyl]-2-pyrimidinamine]"
< 500 nM,< 100 nM,< 500 nM,"CCNc1nc(-c2cc(C)cc(OC)c2)c(-c2ccnc(Nc3ccc(N4CCN5CCOC[C@H]5C4)nc3)n2)s1 [Example 71, 4-{2-(Ethylamino)-4-[3-methyl-5-(methyloxy)phenyl]-1,3-thiazol-5-yl}-N-{6-[(9aR)-hexahydropyrazino[2,1-c][1,4]oxazin-8(1H)-yl]-3-pyridinyl}-2-pyrimidinamine]"
500 to 5000 nM,< 100 nM,500 to 5000 nM,"COc1cccc(-c2nc(CF)sc2-c2ccnc(Nc3ccc(OCCN4CCCC4)c(F)c3)n2)c1 [Example 73, 4-{2-(Fluoromethyl)-4-[3-(methyloxy)phenyl]-1,3-thiazol-5-yl}-N-(3-fluoro-4-{[2-(1-pyrrolidinyl)ethyl]oxy}phenyl)-2-pyrimidinamine]"
500 to 5000 nM,< 100 nM,500 to 5000 nM,"COc1cc(OC)cc(-c2nc(N)oc2-c2ccnc(Nc3ccc(OC4CCN(CCS(C)(=O)=O)CC4)c(F)c3)n2)c1 [Example 75, 4-{2-Amino-4-[3,5-bis(methyloxy)phenyl]-1,3-oxazol-5-yl}-N-[3-fluoro-4-({1-[2-(methylsulfonyl)ethyl]-4-piperidinyl}oxy)phenyl]-2-pyrimidinamine]"
500 to 5000 nM,< 100 nM,500 to 5000 nM,"COc1cccc(-c2nc(C(C)C)sc2-c2ccnc(Nc3ccc(NCCN4CCCC4)cc3)n2)c1 [Example 76, N-(4-{2-(1-Methylethyl)-4-[3-(methyloxy)phenyl]-1,3-thiazol-5-yl}-2-pyrimidinyl)-N′-[2-(1-pyrrolidinyl)ethyl]-1,4-benzenediamine]"
> 5000 nM,< 100 nM,> 5000 nM,CCNc1nc(-c2ccnc(O)c2)c(-c2ccnc(Nc3ccc(N4CCS(=O)(=O)CC4)nc3)n2)s1 [Example 79]
> 5000 nM,< 100 nM,> 5000 nM,CCc1nc(-c2cc(C)cc(OC)c2)c(-c2ccnc(Nc3ccc(N4CCN5CCOC[C@H]5C4)nc3)n2)s1 [Example 80]
500 to 5000 nM,100 to 1000 nM,> 5000 nM,COc1cc(OC)cc(-c2nc(C)oc2-c2ccnc(Nc3ccc(OC4CCN(CCS(C)(=O)=O)CC4)c(F)c3)n2)c1 [Example 83]
500 to 5000 nM,< 100 nM,500 to 5000 nM,COc1cc(OC)cc(-c2nc(C)oc2-c2ccnc(Nc3ccc(N4CCN(C)CC4)c(F)c3)n2)c1 [Example 84]

IC50 [1],IC50 [2],IC50 [3],Structure (SMILES)
500 to 5000 nM,< 100 nM,500 to 5000 nM,CCc1nc(-c2cc(OC)cc(OC)c2)c(-c2ccnc(Nc3ccc(N4CCN(C)CC4)c(F)c3)n2)o1 [Example 85]
500 to 5000 nM,< 100 nM,500 to 5000 nM,COc1cc(OC)cc(-c2nc(N)oc2-c2ccnc(Nc3ccc(N4CCN(C)CC4)c(F)c3)n2)c1 [Example 86]
500 to 5000 nM,< 100 nM,500 to 5000 nM,CCNc1nc(-c2cc(OC)cc(OC)c2)c(-c2ccnc(Nc3ccc(OC4CCN(CCF)CC4)c(C)c3)n2)o1 [Example 88]
500 to 5000 nM,< 100 nM,500 to 5000 nM,CCNc1nc(-c2cc(OC)cc(OC)c2)c(-c2ccnc(Nc3cc(F)c(OC4CCN(CCF)CC4)c(F)c3)n2)o1 [Example 93]
> 5000 nM,100 to 1000 nM,> 5000 nM,CCNc1nc(-c2cc(O)ccn2)c(-c2ccnc(Nc3ccc(OCCN4CCCC4)c(Cl)c3)n2)s1 [Example 97]
< 500 nM,< 100 nM,< 500 nM,CCNc1nc(-c2cc(C)cc(OC)c2)c(-c2ccnc(Nc3ccc(N4CCN(C(C)=O)CC4)nc3)n2)o1 [Example 100]
< 500 nM,< 100 nM,500 to 5000 nM,CCNc1nc(-c2cc(C)cc(OC)c2)c(-c2ccnc(Nc3ccc(N4CCOCC4)c(F)c3)n2)o1 [Example 101]
500 to 5000 nM,< 100 nM,500 to 5000 nM,Nc1cccc(-c2nc(N3CCCC3)sc2-c2ccnc(Nc3ccc(NCCN4CCCC4)c(F)c3)n2)c1 [Example 109]
500 to 5000 nM,< 100 nM,500 to 5000 nM,CCNc1nc(-c2ccnc(O)c2)c(-c2ccnc(Nc3ccc(NCCN4CCCC4)c(Cl)c3)n2)s1 [Example 110]
500 to 5000 nM,< 100 nM,> 5000 nM,CCNc1nc(-c2ccnc(OC)c2)c(-c2ccnc(Nc3ccc(N4CCN(C)CC4)c(F)c3)n2)s1 [Example 111]
500 to 5000 nM,< 100 nM,500 to 5000 nM,CCNc1nc(-c2cc(C)cc(OC)c2)c(-c2ccnc(Nc3ccc(N4CCN5CCCCC5C4)c(F)c3)n2)s1 (stereo not shown) [Example 114]
> 5000 nM,< 100 nM,> 5000 nM,CCNc1nc(-c2cc(OC)cc(OC)c2)c(-c2ccnc(Nc3ccc(N4CCN(C(=O)OCC)CC4)nc3)n2)o1 [Example 121]
500 to 5000 nM,< 100 nM,500 to 5000 nM,CCNc1nc(-c2cc(OC)cc(OC)c2)c(-c2ccnc(Nc3ccc4c(c3)N(C(C)=O)CC4)n2)o1 [Example 122]
500 to 5000 nM,< 100 nM,> 5000 nM,CCNc1nc(-c2cc(OC)cc(OC)c2)c(-c2ccnc(Nc3ccc(CCN4CCOCC4)cc3)n2)o1 [Example 123]
500 to 5000 nM,< 100 nM,500 to 5000 nM,CCNc1nc(-c2cc(C)cc(OC)c2)c(-c2ccnc(Nc3ccc(OC4CCN(CCF)CC4)c(C)c3)n2)o1 [Example 126]
500 to 5000 nM,< 100 nM,500 to 5000 nM,CCNc1nc(-c2cc(C)cc(OC)c2)c(-c2ccnc(Nc3ccc(N4CCN(CCOC)CC4)c(C(=O)O)c3)n2)o1 [Example 130]
500 to 5000 nM,< 100 nM,500 to 5000 nM,CCNc1nc(-c2cc(C)cc(OC)c2)c(-c2ccnc(Nc3ccc(N4CCN5CCCCC5C4)c(F)c3)n2)o1 (stereo not shown) [Example 132]
